Data reported in patent publication US10414769B2, “5,8-dimethyl-9-phenyl-5,8-dihydro-6H-pyrazolo[3,4-h]quinazolin-2-yl)-(1H-pyrazol-3-yl)-amines as IGF-1R/IR inhibitors” (Boehringer Ingelheim International GmbH, priority 2015, dated 2019).

What was measured:
[1] = tested on: TC-71 (EWING'S sarcoma) cells; assay: Cell proliferation assay TC-71 (Alamar Blue); format: cell-based; conditions: anti-proliferative effect, TC-71 cells, 72 h; read-out: TC71 EC50
Procedure: Cell Proliferation Assays
Compounds were tested for their anti-proliferative effects in the TC-71 (EWING'S sarcoma) and HCT 116 (colorectal carcinoma) cancer cell lines in vitro. Published scientific data has described that interference with the IGF-1R signaling pathway reduces the proliferation of TC-71 cells (Manara et al, 2007). Therefore TC-71 cells served as a positive control cell line for monitoring the activity of compounds against IGF-1R-mediated cell proliferation. […] Therefore the HCT 116 cell line served as a negative control.
2000 TC-71 cells or 1000 HCT 116 cells were seeded per well in 180 μL IMDM+10% foetal calf serum (FCS)+penicillin/streptomycin into 96-well microtitre plates. The plates were placed in a cell culture incubator (37° C. in a humidified atmosphere of […]/5% CO2) overnight. The following day, serial dilutions of compounds, prepared in duplicates, were transferred onto the cell layers (controls without compound). The cells were cultivated for a further 72 h in the cell culture incubator. 20 μL of Alamar Blue™ (Serotec Ltd, Dusseldorf, Germany) was added to each well and the plates incubated for 7 h in the cell culture incubator. Fluorescence (extinction wavelength of 544 nm and emission at 590 nm) was then measured and the normalized data fitted by iterative calculation with a sigmoidal curve analysis program (Graph Pad Prism) with a variable Hill slope to determine the EC50 values.

[2] = molecular target: T1, AKT2 (PKB beta) (Homo sapiens, UniProt P31751); assay: Z'-LYTE kinase selectivity assay AKT2; format: biochemical
T1 construct: purchased Life Technologies PV3975
From the text: (§1) In order to compare the kinase selectivity of compounds (I) according to the invention with known prior art compounds the commercially provided SelectScreen® Kinase Profiling Service (Z′-LYTE®) was used (Life Technologies GmbH, Darmstadt, Germany) to investigate the ability of the compounds to inhibit a number of different, representatively selected human kinases. Further details regarding this service are available on the Life Technologies website at
(§2) The Z′-LYTE® biochemical assay employs a fluorescence-based, coupled-enzyme format and is based on the differential sensitivity of phosphorylated and non-phosphorylated peptides to proteolytic cleavage. The peptide substrate is labeled with two fluorophores—one at each end—that make up a FRET pair.
(§3) In the primary reaction, the kinase transfers the gamma-phosphate of ATP to a single tyrosine, serine or threonine residue in a synthetic FRET-peptide. In the secondary reaction, a site-specific protease recognizes and cleaves non-phosphorylated FRET-peptides. Phosphorylation of FRET-peptides suppresses cleavage by the Development Reagent. Cleavage disrupts FRET between the donor (i.e., coumarin) and acceptor (i.e., fluorescein) fluorophores on the FRET-peptide, whereas uncleaved, phosphorylated FRET-peptides maintain FRET. A ratiometric method, which calculates the ratio (the Emission Ratio) of donor emission to acceptor emission after excitation of the donor fluorophore at 400 nm, is used to quantitate reaction progress, as shown in the equation below.
(§4) The Test Compounds are screened at 1 μM.
The 2×AKT2 (PKB beta) (# PV3975)/Ser/Thr 06 (Z′-LYTE® Kinase Assay Kit—Ser/Thr 6 Peptide, # PV 3179) mixture is prepared in 50 mM HEPES pH 7.5, 0.01% BRIJ-35, 10 mM MgCl2, 1 mM EGTA. The final 10 μL Kinase Reaction consists of 0.78-40 ng AKT2 (PKB beta) and 2 μM Ser/Thr 06 in 50 mM HEPES pH 7.5, 0.01% BRIJ-35, 10 mM MgCl2, 1 mM EGTA. After the 1 hour Kinase Reaction incubation, 5 μL of a 1:4096 dilution of Development Reagent A is added.

[3] = molecular target: T2, AMPK A1/B1/G1 (Homo sapiens, UniProt Q13131); assay: Z'-LYTE kinase selectivity assay AMPK A1/B1/G1; format: biochemical; conditions: read-out: AMPK A1B1G1 % inhibition
T2 construct: purchased Life Technologies PV 4672
From the text: as §1, §2, §3, §4
The 2×AMPK A1/B1/G1 (# PV 4672)/Ser/Thr 23 (Z′-LYTE® Kinase Assay Kit—Ser/Thr 23 Peptide, # PV 4644) mixture is prepared in 50 mM HEPES pH 7.5, 0.01% BRIJ-35, 10 mM MgCl2, 1 mM EGTA. The final 10 μL Kinase Reaction consists of 0.43-2.86 ng AMPK A1/B1/G1 and 2 μM Ser/Thr 23 in 50 mM HEPES pH 7.5, 0.01% BRIJ-35, 10 mM MgCl2, 1 mM EGTA. After the 1 hour Kinase Reaction incubation, 5 μL of a 1:4096 dilution of Development Reagent A is added.

[4] = molecular target: T3, LCK (Homo sapiens, UniProt P06239); assay: Z'-LYTE kinase selectivity assay LCK; format: biochemical
T3 construct: purchased Life Technologies P 3043
From the text: as §1, §2, §3, §4
The 2×LCK (# P 3043)/Tyr 02 (Z′-LYTE® Kinase Assay Kit—Tyrosine 2 Peptide, # PV 3191) mixture is prepared in 50 mM HEPES pH 7.5, 0.01% BRIJ-35, 10 mM MgCl2, 1 mM EGTA. The final 10 μL Kinase Reaction consists of 2.46-50 ng LCK and 2 μM Tyr 02 in 50 mM HEPES pH 7.5, 0.01% BRIJ-35, 10 mM MgCl2, 1 mM EGTA. After the 1 hour Kinase Reaction incubation, 5 μL of a 1:128 dilution of Development Reagent A is added.

[5] = molecular target: T4, MYLK2 (skMLCK) (Homo sapiens, UniProt Q9H1R3); assay: Z'-LYTE kinase selectivity assay MYLK2; format: biochemical
T4 construct: purchased Life Technologies PV 3757
From the text: as §1, §2, §3, §4
The 2×MYLK2 (skMLCK) (# PV 3757)/Ser/Thr 13 (Z′-LYTE® Kinase Assay Kit—Ser/Thr 13 Peptide, # PV 3793) mixture is prepared in 50 mM HEPES pH 7.5, 0.01% BRIJ-35, 10 mM MgCl2, 1 mM EGTA, 4 mM CaCl2, 800 U/mL Calmodulin, 0.02% NaN3. The final 10 μL Kinase Reaction consists of 6.71-48.9 ng MYLK2 (skMLCK) and 2 μM Ser/Thr 13 in 50 mM HEPES pH 7.5, 0.01% BRIJ-35, 10 mM MgCl2, 1 mM EGTA, 2 mM CaCl2, 400 U/mL Calmodulin, 0.01% NaN3. After the 1 hour Kinase Reaction incubation, 5 μL of a 1:1024 dilution of Development Reagent A is added.

[6] = molecular target: T5, RAF1 (cRAF) Y340D Y341D (Homo sapiens, UniProt P04049, Y340D/Y341D); assay: Z'-LYTE kinase selectivity assay RAF1; format: biochemical
T5 construct: purchased Life Technologies PV 4046
From the text: as §1, §2, §3, §4
After the 1 hour Kinase Reaction incubation, 5 μL of a 1:1024 dilution of Development Reagent A is added.

T2 sequence (Q13131 whole entry): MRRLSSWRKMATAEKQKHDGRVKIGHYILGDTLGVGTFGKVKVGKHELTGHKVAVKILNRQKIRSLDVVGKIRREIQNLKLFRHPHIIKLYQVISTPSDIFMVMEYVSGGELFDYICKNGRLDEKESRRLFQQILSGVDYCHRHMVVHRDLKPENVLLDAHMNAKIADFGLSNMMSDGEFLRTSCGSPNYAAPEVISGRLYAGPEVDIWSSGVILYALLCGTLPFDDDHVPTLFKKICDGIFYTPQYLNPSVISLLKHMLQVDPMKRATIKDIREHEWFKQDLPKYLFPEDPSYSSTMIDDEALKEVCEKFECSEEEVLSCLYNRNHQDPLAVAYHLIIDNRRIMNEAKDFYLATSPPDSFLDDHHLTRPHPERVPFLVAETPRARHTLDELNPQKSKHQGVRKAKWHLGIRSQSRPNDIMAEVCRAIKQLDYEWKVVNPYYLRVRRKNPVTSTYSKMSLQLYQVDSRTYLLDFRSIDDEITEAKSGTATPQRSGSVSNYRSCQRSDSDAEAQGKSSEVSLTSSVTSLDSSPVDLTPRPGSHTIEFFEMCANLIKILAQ
T2 sequence (Q9Y478 whole entry partner): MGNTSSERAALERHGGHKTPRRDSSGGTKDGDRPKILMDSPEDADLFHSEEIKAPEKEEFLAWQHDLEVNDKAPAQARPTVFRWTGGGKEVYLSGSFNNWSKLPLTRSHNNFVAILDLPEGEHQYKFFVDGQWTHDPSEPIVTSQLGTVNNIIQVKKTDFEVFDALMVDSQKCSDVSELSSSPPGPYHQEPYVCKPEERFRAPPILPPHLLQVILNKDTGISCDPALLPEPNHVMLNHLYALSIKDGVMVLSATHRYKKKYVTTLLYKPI
T2 sequence (P54619 whole entry partner): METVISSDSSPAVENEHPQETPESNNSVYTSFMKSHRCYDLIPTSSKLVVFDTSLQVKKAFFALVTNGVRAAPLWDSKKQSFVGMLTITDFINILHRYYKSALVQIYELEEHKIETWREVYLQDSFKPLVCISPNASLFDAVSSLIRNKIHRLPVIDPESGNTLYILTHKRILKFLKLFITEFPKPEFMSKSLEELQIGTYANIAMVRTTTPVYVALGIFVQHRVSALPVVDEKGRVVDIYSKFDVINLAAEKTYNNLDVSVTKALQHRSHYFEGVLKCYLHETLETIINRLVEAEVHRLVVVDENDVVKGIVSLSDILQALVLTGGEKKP
T5 sequence (P04049 306-648 Y340D/Y341D limits assumed): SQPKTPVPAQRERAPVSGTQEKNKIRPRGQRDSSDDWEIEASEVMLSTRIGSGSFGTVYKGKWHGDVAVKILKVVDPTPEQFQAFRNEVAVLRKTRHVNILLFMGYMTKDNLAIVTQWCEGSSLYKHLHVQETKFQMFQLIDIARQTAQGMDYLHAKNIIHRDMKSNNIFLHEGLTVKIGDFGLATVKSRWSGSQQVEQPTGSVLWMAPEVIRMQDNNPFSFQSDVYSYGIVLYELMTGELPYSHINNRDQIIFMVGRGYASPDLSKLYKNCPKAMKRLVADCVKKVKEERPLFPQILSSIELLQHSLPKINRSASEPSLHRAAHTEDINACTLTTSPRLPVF
T1 sequence (P31751 whole entry): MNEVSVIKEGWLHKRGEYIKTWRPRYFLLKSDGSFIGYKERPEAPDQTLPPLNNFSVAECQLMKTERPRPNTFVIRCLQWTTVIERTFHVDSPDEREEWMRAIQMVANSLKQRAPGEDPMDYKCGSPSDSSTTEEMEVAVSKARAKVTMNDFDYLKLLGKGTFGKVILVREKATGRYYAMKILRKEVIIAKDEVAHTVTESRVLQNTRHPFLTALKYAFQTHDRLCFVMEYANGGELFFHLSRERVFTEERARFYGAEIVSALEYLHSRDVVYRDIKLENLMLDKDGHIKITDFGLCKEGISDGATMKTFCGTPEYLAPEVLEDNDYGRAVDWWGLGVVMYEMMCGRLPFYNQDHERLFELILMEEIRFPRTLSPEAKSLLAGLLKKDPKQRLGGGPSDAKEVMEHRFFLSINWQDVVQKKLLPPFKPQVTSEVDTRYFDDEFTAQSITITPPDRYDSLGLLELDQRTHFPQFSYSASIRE
T3 sequence (P06239 whole entry): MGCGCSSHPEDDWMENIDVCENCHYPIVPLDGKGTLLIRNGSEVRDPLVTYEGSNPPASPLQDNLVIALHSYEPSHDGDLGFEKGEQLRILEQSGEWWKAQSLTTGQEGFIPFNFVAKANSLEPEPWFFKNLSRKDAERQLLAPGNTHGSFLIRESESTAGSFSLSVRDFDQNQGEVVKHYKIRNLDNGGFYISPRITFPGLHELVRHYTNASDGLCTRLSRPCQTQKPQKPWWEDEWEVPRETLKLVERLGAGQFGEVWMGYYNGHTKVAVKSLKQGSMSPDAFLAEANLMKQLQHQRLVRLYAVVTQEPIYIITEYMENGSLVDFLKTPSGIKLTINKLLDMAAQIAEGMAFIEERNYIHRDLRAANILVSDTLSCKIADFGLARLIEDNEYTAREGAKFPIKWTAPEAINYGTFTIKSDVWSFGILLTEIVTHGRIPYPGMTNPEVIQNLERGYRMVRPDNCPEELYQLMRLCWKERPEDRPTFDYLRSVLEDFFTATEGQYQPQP

| SMILES | EC50 [1] [nM] | inhibition at 1 µM [2] [%] | inhibition at 1 µM [3] [%] | inhibition at 1 µM [4] [%] | inhibition at 1 µM [5] [%] | inhibition at 1 µM [6] [%] |
| --- | --- | --- | --- | --- | --- | --- |
| C[C@@H]1Cc2nn(C)c(-c3ccccc3)c2-c2nc(Nc3ccn(CCN4CCN(CC5CCCO5)CC4)n3)ncc21 (stereo partly drawn) [Compound I-9] | 5.43 | 2 | 35 | 80 | 10 | 32 |
| C[C@@H]1Cc2nn(C)c(-c3ccccc3)c2-c2nc(Nc3ccn(CCN4CCN(CC(C)(C)O)CC4)n3)ncc21 [Compound I-3] | 2.67 | 7 | 43 | 82 | 12 | 31 |
| COCCN1CCN(CCn2ccc(Nc3ncc4c(n3)-c3c(nn(C)c3-c3ccccc3)C[C@H]4C)n2)CC1 [Compound I-11] | 3.74 | 3 | 28 | 76 | 16 | 14 |
| C[C@@H]1Cc2nn(C)c(-c3ccccc3)c2-c2nc(Nc3ccn(CCN4CCN(CC(=O)OC5CCOCC5)CC4)n3)ncc21 [Compound I-8] | 5.98 | 4 | 29 | 59 | 13 | 25 |

Second part, the compound after the results:

| EC50 [1] [nM] | inhibition at 1 µM [2] [%] | inhibition at 1 µM [3] [%] | inhibition at 1 µM [4] [%] | inhibition at 1 µM [5] [%] | inhibition at 1 µM [6] [%] | SMILES |
| --- | --- | --- | --- | --- | --- | --- |
| 2.62 | 3 | 36 | 85 | 16 | 16 | C[C@@H]1Cc2nn(C)c(-c3ccccc3)c2-c2nc(Nc3ccn(CCN4CCN(C)CC4)n3)ncc21 [Compound I-1] |
| 2.17 | 7 | 39 | 84 | 23 | 36 | CC(O)CN1CCN(CCn2ccc(Nc3ncc4c(n3)-c3c(nn(C)c3-c3ccccc3)C[C@H]4C)n2)CC1 (stereo partly drawn) [Compound I-7] |
| 2.35 | 1 | 34 | 78 | 3 | 40 | C[C@@H]1Cc2nn(C)c(-c3ccccc3)c2-c2nc(Nc3ccn(CCN4CCOCC4)n3)ncc21 [Compound I-2] |
